Each structure is given as a SMILES string. ± gives the expanded uncertainty stated by the source.

The conditions of series [1]: Crystal; DSC.
The nature of series [2]: Molar enthalpy of transition or fusion. The settings on record: Crystal; DSC.

Consider `CC(C)N1C(=O)N(c2ccccc2)CSC1=NC(C)(C)C` [buprofezin], for which the Triple point temperature in series [1] is 377.95 ± 1.2 K. The “Molar enthalpy of transition or fusion” value in series [2] was found to be 30 ± 1 kJ/mol.

Values taken from the NIST ThermoML archive (doi:10.1021/acs.jced.8b01099).
